Source: publication PMC4624780 (PLoS ONE, 2015)
Square brackets hold non-standard residues; d marks the D form. Peptide text beside a SMILES is read from it. Ahx = NCCCCCC(=O)O

Legend:
[1] = test system: 3A N-terminal (1–52) peptide dimer; type: biochemical, foot-and-mouth disease virus (FMDV)

Compound	inhibition of viral production (FMDV C-S8c1)	reduction of viral yield at concentrations lower than 100 μM (FMDV C-S8c1)	inhibition of viral production at 100 μM (FMDV C-S8c1; 24 h, 100 μM)	intensity of the N-ter dimer band, immunoblotting with polyclonal antibody 479 [1]
CC[C@H](C)[C@H](NC(=O)[C@H](CC(C)C)NC(=O)[C@@H]1CCCN1C(=O)[C@H](CCCNC(=N)N)NC(=O)[C@H](CC(C)C)NC(=O)[C@H](CCC(=O)O)NC(=O)CCCCCNC(=O)[C@H](CCCNC(=N)N)NC(=O)[C@H](CCCNC(=N)N)NC(=O)[C@H](CCCNC(=N)N)NC(=O)[C@H](CCCNC(=N)N)NC(=O)[C@H](CCCNC(=N)N)NC(=O)[C@H](CCCNC(=N)N)NC(=O)[C@@H](N)CCCNC(=N)N)C(=O)N[C@@H](CCC(N)=O)C(=O)N[C@@H](CCC(N)=O)C(N)=O [Peptide R7-α2] (H-RRRRRRR[Ahx]ELRPLIQQ-NH2; N-terminus assumed)	dose dependent inhibition	significant reductions	ca. 50%	–
ELRPLIQQ [α2]	–	–	–	impaired in vitro dimer formation
FFEGMVHDS [α1]	–	–	–	impaired in vitro dimer formation
RRRRRRRXFFEGMVHDS [Peptide R7-α1]	dose dependent inhibition	–	–	–
